Test results reported in patent publication US7314747B1, “SMRT co-repressors, transcriptional co-repressors that interact with nuclear hormone receptors” (The Salk Institute for Biological Studies, priority 1995, dated 2008).

Key:
[1] = molecular target: T1, EcR:USP complex with SMRTER ERID1/ERID2 (Drosophila melanogaster, UniProt P34021); test: In vitro GST pull-down of 35S-labeled EcR by GST-ERID1 / GST-ERID2; format: binding; settings: 3 μM, when USP is present
T1 construct: made in house; host or cells: EcR and USP: TNT (Promega) coupled transcription-translation; GST fusions: E. coli DH5
T1 sequence (P34021 1-878): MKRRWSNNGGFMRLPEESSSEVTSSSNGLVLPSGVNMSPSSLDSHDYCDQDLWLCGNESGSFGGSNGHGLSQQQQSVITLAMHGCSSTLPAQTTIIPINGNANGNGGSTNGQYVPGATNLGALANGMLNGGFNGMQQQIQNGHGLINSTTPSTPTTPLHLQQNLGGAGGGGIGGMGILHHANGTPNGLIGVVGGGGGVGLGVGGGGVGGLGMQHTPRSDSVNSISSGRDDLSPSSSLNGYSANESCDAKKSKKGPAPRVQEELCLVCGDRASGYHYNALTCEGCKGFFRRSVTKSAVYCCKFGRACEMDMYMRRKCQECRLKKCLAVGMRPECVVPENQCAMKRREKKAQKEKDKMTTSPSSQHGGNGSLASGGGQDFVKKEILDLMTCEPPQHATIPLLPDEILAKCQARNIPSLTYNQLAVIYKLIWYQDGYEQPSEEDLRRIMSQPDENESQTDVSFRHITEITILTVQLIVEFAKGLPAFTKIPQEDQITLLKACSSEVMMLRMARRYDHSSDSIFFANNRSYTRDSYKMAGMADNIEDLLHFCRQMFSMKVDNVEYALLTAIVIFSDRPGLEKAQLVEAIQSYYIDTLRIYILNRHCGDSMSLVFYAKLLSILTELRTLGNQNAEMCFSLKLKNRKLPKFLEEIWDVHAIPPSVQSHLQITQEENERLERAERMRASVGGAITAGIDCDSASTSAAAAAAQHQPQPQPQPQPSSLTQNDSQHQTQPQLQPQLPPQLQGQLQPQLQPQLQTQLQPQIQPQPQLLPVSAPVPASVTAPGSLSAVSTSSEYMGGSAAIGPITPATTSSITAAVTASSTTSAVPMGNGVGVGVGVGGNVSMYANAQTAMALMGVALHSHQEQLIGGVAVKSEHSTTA
T1 sequence (P20153 1-508 partner): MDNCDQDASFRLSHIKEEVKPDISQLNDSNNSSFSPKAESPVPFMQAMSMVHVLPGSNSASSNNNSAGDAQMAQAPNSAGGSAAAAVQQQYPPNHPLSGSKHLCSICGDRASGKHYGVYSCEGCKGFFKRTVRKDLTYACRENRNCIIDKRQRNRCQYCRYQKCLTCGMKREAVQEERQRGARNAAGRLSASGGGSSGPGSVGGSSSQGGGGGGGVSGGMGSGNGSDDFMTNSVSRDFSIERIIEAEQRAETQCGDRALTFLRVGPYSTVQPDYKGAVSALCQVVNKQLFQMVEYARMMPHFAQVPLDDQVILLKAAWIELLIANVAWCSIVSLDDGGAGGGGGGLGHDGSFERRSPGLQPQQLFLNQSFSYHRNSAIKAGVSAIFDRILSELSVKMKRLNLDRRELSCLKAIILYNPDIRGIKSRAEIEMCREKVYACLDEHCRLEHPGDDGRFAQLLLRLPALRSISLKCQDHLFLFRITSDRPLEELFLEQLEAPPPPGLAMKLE
Procedure: Glutathione S-transferase fusion proteins, including GST-X, GST-ERID1 (amino acids 1698-2063 of SEQ ID NO:1), and GST-ERID2 (amino acids 2951-3038 of SEQ ID NO:1), were expressed in E. coli DH5 cells, and extracts were affinity purified by binding to glutathione Sepharose 4B beads. Bound proteins used as affinity matrices in pull-down experiments were first equilibrated with the binding buffer (20 mM HEPES [pH 7.9], 150 mM NaCl, 1 mM EDTA, 4 mM MgCl2, 1 mM DTT, 0.06% NP40, 10% Glycerol, 0.25 mM PMSF, 1 mg BSA). For pull-down assays using GST-ERID1 (amino acids 1698-2063 of SEQ ID NO:1) and GST-ERID2 (amino acids 2951-3038 of SEQ ID NO:1), additional hsp27EcRE (0.05 μg/ml) was added to the binding buffer. In this experiment, […] of 50% GST-protein beads slurry, containing approximately 1 μg of proteins, were incubated with 10 μl of 35S-methionine-labeled proteins in 300 μl of the binding buffer (with or without 3 μM of MurA as indicated) for 30 min at room temperature. After the incubation, beads were washed three times with the binding buffer (with or without ligand) and resuspended in SDS-PAGE sample buffer before loading. After electrophoresis, bound radio-labeled proteins were visualized by autoradiography. […]

[2] = molecular target: T2, EcR interaction with E52 or SMRT (Drosophila melanogaster, UniProt P34021); test: Yeast two-hybrid assay, E52-EcR or SMRT-EcR interaction; format: cell-based; settings: 3 μM ligand
T2 construct: the region corresponding to amino acids 223-878 of EcRB1; expressed in transfected cells; host or cells: Y190 yeast cells
T2 sequence (P34021 223-878): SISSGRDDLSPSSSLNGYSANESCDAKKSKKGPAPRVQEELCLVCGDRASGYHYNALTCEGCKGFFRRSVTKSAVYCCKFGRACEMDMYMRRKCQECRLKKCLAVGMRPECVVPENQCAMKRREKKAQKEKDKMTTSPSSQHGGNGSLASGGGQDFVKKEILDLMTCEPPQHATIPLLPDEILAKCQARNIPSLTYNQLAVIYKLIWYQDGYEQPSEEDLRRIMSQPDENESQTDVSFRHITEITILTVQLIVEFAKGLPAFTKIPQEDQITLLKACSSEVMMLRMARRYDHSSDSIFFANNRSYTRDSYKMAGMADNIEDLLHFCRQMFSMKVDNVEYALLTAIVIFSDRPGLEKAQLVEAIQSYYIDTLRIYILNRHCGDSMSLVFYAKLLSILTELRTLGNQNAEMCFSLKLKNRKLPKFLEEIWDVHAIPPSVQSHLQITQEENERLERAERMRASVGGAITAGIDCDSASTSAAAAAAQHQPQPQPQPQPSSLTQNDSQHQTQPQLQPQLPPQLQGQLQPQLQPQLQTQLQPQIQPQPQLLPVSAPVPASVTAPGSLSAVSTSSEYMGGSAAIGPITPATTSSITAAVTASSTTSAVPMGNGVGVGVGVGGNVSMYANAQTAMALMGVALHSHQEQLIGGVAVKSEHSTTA
Procedure: Transformants were selected onto DO-Leu-Trp-His plates containing 40 mM 3-aminotriazole (Sigma) for 3-4 days. Surviving yeast colonies were picked as primary positives and restreaked on selection plates to isolate single clones. Activation domain plasmids were rescued from the selected positive transformants for further analysis. Each clone was evaluated by testing its potential interaction with several other nuclear receptors using the yeast two-hybrid assays. […] Quantitative liquid assay of β-galactosidase was performed on positive clones 16 hr after treating the yeast cells with no ligand, or with 3 μM ligand.

## CC(C)CC[C@@H](O)[C@](C)(O)[C@H]1CC[C@@]2(O)C3=CC(=O)[C@]4(O)C[C@@H](O)[C@@H](O)C[C@]4(C)[C@H]3[C@H](O)C[C@]12C [Muristerone A]
[1]
  effect of ligand on GST-ERID/EcR pull-down complex: disrupted
[2]
  dissociation of the interaction between E52 and EcR by ligand: not dissociated
  dissociation of the interaction between SMRT and EcR by ligand: not dissociated
